Values quoted from earlier work in patent publication US9084755B2, “Method for extracting and separating ginkgolides” (CHENGDU BAIYU TECHNOLOGY PHARMACY CO., LTD, priority 2012, dated 2015).

Target: platelet-activating factor PAF receptor (Homo sapiens, UniProt P25105)
Settings: compared among ginkgolides

Sequence of platelet-activating factor PAF receptor (P25105 whole entry): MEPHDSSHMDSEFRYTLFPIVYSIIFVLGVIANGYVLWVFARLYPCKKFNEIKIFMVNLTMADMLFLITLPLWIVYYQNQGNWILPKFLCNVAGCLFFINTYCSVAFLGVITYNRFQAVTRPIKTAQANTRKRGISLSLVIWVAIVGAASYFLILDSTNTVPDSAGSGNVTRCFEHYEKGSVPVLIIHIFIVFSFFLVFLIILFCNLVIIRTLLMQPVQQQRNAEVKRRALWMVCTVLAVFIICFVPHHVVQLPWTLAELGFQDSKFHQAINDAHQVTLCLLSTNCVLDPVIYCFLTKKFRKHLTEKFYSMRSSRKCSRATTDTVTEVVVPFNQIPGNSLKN

C[C@@H]1C(=O)O[C@H]2[C@H](O)C34[C@H]5C[C@@H](C(C)(C)C)[C@]36[C@@H](OC(=O)[C@@H]6O)O[C@@]4(C(=O)O5)[C@@]12O (stereo partly shown) [ginkgolide B]
antagonism to the PAF: strongest
